Measured values taken from paper PMC11942905, “Identification of a Selective Inhibitor of Human NFS1, a Cysteine Desulfurase Involved in Fe-S Cluster Assembly, via Structure-Based Virtual Screening” (International Journal of Molecular Sciences, 2025).

Key:
aconitase (ACO) = experiment: Aconitase activity in A549 cells; assay type: cell-based, human; conditions: 50 µM
Procedure: (§1) The activity of succinate dehydrogenase (SDH) in cells was determined using an SDH activity assay kit (Solarbio, Beijing, China) according to the manufacturer’s instructions. The optical density at 600 nm (OD600) was measured using a multifunctional microplate reader in 96-well plates. One unit of SDH activity was defined as the amount of enzyme catalyzing the consumption of 1 nmol of 2,6-dichlorophenol indophenol per minute at 37 °C [43]. The activity of aconitase (ACO) was measured as previously described, with some modifications. The cells were washed three times with pre-cooled PBS and lysed with lysis buffer containing 50 mM of Tris-HCl (pH 8.0), 0.2% Triton X-100, 0.6 mM of MnCl2, 5 mM of citrate, and 1 mM of PMSF. The aconitase activity was measured by monitoring the formation of cis-aconitate from isocitrate at 240 nm in 50 mM of Tris-HCl (pH 8.0) containing 20 mM of DL-trisodium isocitrate at 37 °C. An extinction coefficient of 3600 M^−1 cm^−1 at 240 nm was used to calculate the cis-aconitate concentration. One unit of ACO activity was defined as the amount of enzyme catalyzing the generation of 1 nmol of cis-aconitate per minute at 37 °C.

[1] = target: T1, human cystathionine-β-synthase (CBS) (Homo sapiens, UniProt P35520); experiment: Selectivity assay, H2S-producing activity of CBS; assay type: biochemical; conditions: at 100 µM
T1 construct: made in house; host or cells: E. coli
T1 sequence (P35520 1-551): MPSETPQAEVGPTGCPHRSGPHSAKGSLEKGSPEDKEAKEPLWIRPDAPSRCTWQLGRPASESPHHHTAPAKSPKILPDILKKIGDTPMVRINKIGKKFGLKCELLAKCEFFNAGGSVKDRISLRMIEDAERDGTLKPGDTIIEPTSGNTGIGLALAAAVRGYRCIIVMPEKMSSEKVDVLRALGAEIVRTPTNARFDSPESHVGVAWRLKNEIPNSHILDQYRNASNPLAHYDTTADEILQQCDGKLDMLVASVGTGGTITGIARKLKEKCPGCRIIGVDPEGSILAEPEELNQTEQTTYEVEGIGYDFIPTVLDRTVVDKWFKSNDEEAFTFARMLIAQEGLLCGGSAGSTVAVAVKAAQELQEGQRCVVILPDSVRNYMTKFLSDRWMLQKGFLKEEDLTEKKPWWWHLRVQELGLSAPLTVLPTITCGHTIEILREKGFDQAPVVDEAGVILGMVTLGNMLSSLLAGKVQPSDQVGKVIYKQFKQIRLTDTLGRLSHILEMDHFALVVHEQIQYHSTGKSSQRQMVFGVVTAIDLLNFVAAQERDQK
Procedure: To evaluate the selectivity of Compounds 53 and 56, their effects on the activities of two other PLP-dependent enzymes, human cystathionine-β-synthase (CBS) and cystathionine-γ-lyase (CSE), were determined using a H2S-producing assay. Human CBS and CSE were expressed and purified in E. coli with a purity exceeding 90%, as confirmed by SDS-PAGE (Figures S4A and S5A). Subsequently, the H2S-producing activities of CBS and CSE were assessed in the presence of different concentrations of Compounds 53 and 56. A widely used CBS inhibitor, AOAA, and a specific CSE inhibitor, PAG, were used as positive controls (Figures S4B and S5B).
The H2S-producing activity of CBS was measured as previously described. The reaction mixture (200 μL) contained 50 mM of Hepes buffer (pH 7.4), 2 mM of homocysteine, 10 μM of PLP, 0.4 mM of lead nitrate, and 5 μg of CBS protein. It was preincubated at 37 °C for 3 min, and the reaction was initiated by the addition of 2 mM of cysteine. The reaction was monitored in a multifunctional microplate reader at 37 °C for 10 min. An extinction coefficient of 5500 M^−1 cm^−1 at 390 nm was used to calculate the lead sulfide concentration. The method used to determine CSE activity in the H2S-producing assay was identical to the CBS assay, except that 1 mM of cysteine was used as the sole substrate. […]

[2] = test system: succinate dehydrogenase (SDH); experiment: Succinate dehydrogenase activity in A549 cells; assay type: cell-based, human; conditions: 50 µM
Procedure: as §1

NFS1 C158A = target: T2, NFS1 C158A (Homo sapiens, UniProt Q9Y697, C158A); experiment: H2S-producing assay, NFS1 C158A mutant; assay type: biochemical
T2 construct: His tag (N); made in house; host or cells: E. coli BL21(DE3)
T2 sequence (Q9Y697 56-457 C158A): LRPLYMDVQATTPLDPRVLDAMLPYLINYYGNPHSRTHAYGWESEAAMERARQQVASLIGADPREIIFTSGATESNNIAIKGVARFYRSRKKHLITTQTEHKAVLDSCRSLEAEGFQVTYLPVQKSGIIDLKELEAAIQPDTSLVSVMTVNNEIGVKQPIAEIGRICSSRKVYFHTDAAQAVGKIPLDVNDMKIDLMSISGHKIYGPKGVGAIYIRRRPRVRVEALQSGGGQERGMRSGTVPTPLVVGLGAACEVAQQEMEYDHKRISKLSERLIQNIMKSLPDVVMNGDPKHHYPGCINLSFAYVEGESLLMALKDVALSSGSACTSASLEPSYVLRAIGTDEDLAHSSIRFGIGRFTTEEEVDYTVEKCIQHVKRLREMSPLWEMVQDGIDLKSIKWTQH
Procedure: To further validate the accuracy of the simulated results, the residues Cys158, Glu387, Lys157, and His156 were mutated to alanine using site-directed mutagenesis.
For the expression and purification of NFS1Δ1-55/ISD11 in E. coli, the plasmid pNFS1-ISD11 was transformed into BL21(DE3) cells. The cells were grown at 37 °C in 1 L cultures of LB medium containing chloramphenicol (50 μg/ml) until the optical density at 600 nm (OD600) reached 0.6–0.8. Protein expression was induced by adding 0.1 mM isopropyl β-D-1-thiogalactopyranoside (IPTG), followed by an additional 12 h of incubation at 25 °C. The cells were harvested by centrifugation at 8000 rpm for 10 min at 4 °C, then resuspended in lysis buffer containing 50 mM phosphate-buffered saline (PBS, pH 7.4), 500 mM NaCl, 100 mg/L lysozyme, 30 mM imidazole, and 1 mM phenylmethanesulfonyl fluoride (PMSF). The resuspended cells were incubated on ice for 1 h, followed by sonication using an Ultrasonic Cell Disruption System (Scientz, Ningbo, China). The supernatant was obtained by centrifugation at 12,000 rpm for 30 min at 4 °C and was loaded onto a HisTrap FF column (GE Healthcare, Chicago, MA, USA) pre-equilibrated with lysis buffer. […] The protein concentration was measured using a BCA protein assay reagent kit (TransGen Biotech, Beijing, China).

COc1cc(/C=N/NC(=O)COc2ccc(Cl)cc2Cl)ccc1O [Compound 53]
ACO activity compared to the control group (aconitase (ACO)): 51.3%
inhibitory effect on CBS [1]: no significant inhibitory effects
SDH activity compared to the control group [2]: 81.8%
IC50 (NFS1 C158A): 114 ± 3.45 µM
